Data: US6762200B2, “Oxa(thia)zolidine derivative and anti-inflammatory drug” (Nippon Soda Co. Ltd., priority 2000, dated 2004)
Read-outs that look alike come from different tables or passages of the source.

Key:
IV-cPLA(2) = target: T1, IV-cPLA(2) (Homo sapiens, UniProt P47712); test: PLA(2) activity, hydrolysis of bis-BODIPY FL C11-PC in activated U937 cells; format: cell-based
T1 sequence (P47712 1-749): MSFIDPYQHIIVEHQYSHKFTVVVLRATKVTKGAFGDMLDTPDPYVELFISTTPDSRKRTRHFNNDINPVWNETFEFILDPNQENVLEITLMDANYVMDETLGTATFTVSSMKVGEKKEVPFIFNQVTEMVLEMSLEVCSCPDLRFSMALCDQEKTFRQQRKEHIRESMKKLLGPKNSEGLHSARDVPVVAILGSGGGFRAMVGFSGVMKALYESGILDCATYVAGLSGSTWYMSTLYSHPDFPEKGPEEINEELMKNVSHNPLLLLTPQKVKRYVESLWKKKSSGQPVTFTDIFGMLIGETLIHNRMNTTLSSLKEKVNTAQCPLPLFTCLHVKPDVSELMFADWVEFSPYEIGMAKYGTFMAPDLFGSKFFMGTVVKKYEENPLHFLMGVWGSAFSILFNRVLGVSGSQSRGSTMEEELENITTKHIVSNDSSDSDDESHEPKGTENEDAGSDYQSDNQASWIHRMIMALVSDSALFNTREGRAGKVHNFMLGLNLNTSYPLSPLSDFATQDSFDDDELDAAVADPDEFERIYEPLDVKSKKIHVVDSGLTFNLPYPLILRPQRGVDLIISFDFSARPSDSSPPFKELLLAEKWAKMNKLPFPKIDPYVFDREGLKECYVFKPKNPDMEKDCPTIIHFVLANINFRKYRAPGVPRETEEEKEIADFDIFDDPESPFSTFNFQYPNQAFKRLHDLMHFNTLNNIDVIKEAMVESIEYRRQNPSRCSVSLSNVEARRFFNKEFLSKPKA
Description: The PLA(2) activity was measured by quantitatively analyzing the fluorescent product of hydrolysis from 1,2-bis-(4,4-difluoro-5,7-dimethyl-4-bora-3a,4a-diaza-s-indecene-3-undecanoyl)-sn-glycero-3-phosphocholine (hereinafter referred to bis-BODIPY®FL C11—PC, Molecular Probes, Inc., B-7701) using activated U937 cells (human monoblastic lymphoma cell line) by inflammatory stimulus (Meshulam, T. et al., The journal of Biological Chemistry 267 (30): 21465-21470 (1992); and Solito, E. et al., British Journal of Pharmacology 124: 1675-1683 (1998).). The substrate bis-BODIPY®FL C11—PC is incorporated into cellular membranes, the proximity of the BODIPY FL fluorophores on adjacent phospholipid acyl chains causes fluorescence self-quenching. Separation of the fluorophores upon hydrolytic cleavage of one of the acyl chains by PLA(1) or the PLA(2) results in increased fluorescence. In the activated U937 by inflammatory stimulus, it is shown that this substrate should be cleaved enzymatically by IV-cPLA(2) from the feature of its behaviors including sensitivity profiles against the inhibitors.
The human cell line U937 was purchased from Dai-Nippon Pharmaceuticals Co., Ltd. The cells were maintained by transferring every 3-4 days into RPMI 1640 medium (Sigma Chemical Co., R6504) supplemented with heat-inactivated 10% fetal bovine serum (Fetal Bovine Serum, Sigma Chemical Co., F 4135) in a 5% CO2 humidified atmosphere at 37° C. The cells were transferred into the culture medium described above, containing 1.2% (v/v) dimethylsulfoxide (hereinafter referred to as […], Nacalai tesque Co., Ltd., D 134-45), and pre-cultured for 96 to 120 hours so as to differentiate into the macrophage-like cells to be provided for the assay. The macrophage-like cells were collected and washed by centrifugation with the Assay medium (Dulbecco's phosphate buffered saline (hereinafter referred to as PBS)-2.2 mM glucose-2.5 μm albumin). Then, Phorbol 12-Myristate 13-Acetate (hereinafter referred to as TPA, Sigma Chemical Co., P 8139) was added to the Assay medium to be 1×10^−8M as the final concentration. Then, the macrophage-like cells were further cultured for an hour to be activated (Rzigalinski, B. A. & Rosenthal, M. D., Biochimica et Biophysica Acta 1223: 219-225 (1994); and Gonchar, M. V. et al., Biochemical and Biophysical Research Communication, 249: 829-832 (1998).).
For preparing substrate liposome suspension, bis-BODIPY®FL C11—PC was combined with phosphatidylcholine (Sigma Chemical Co., P 7769) at 1:9 molar ratio in chloroform, and dried under nitrogen flow. The dried mixture was suspended with the Assay medium at 100 μg/mL, voltexed and sonicated for an hour on ice under dark condition.
The test compound was dissolved with DMSO at 30 mM, and the solution diluted with either DMSO or the Assay medium before addition into the reaction mixture. The DMSO concentration in the reaction mixture was controlled so as to be no more than 0.1%. The 30-fold concentration of test compound solution was put into each well of MICRPTEST™ Tissue Culture Plate, 96 Well (Falcon, 3072) at a rate of 2.5 μL/well. To the respective well was added 25 μL/well of the activated U937 cell suspension ([…]), and the cells were pre-cultured for 120 min. at 37° C. in a 5% CO2 atmosphere incubator. 47.5 μL/well of the substrate liposome suspension with 1.5×10^−6M A23187 (Sigma Chemical Co., C 7522) was added into each well to prepare 75 μL/well of the total reaction mixture, followed by culture for 30 min. under the same conditions with shielding against light. 100 μL/well of 0.1% GEDTA (Dojindo Laboratories Co. Ltd., 348-01311) methanol solution was added into each well and mixed to stop the reaction. […]

TPA-induced ear edema = format: in vivo, ICR-strain male mouse; details: topical, 6 hours after TPA
Description: This test was carried out referring to the method of Carlson, R. P. et al. (Agents and Actions, 17(2): 197-204 (1985).) and the method of Chang, J. (European Journal of Pharmacology, 142: 197-205 (1987).). […] 6 hours later, the thickness of each ear at the particular part was respectively measured three times using a digimatic micrometer to calculate the mean value. Ear edema was determined by subtracting the mean thickness of the left ear as without treatment from that of the right ear as TPA-applied. […] As the positive control, 100 mg/kg of Hydrocortisone (Sigma Chemical Co., H 4001) suspension was applied to the mouse similarly as for the compound of the present invention.

[1] = test system: picryl chloride-induced contact dermatitis (ear swelling); test: Mouse delayed contact dermatitis induced by picryl chloride; details: 1.5 mg/25 μL/ear × 2
Description: This pharmacological test was carried out referring to the method of Asherson, G. L. & Ptak, W. (Immunology, 15: 405-416 (1968).) and the method of Jun Hiroi (Folia Pharmacology of Japan, 86: 233-239 (1985).). More specifically, hairs on the abdomen of an ICR-strain male mouse were removed using an electric clip and an electric shaver. Then, 0.1 mL of 7% ether solution of picryl chloride (Tokyo Kasei Kogyo Co., Ltd., C 0307) was applied onto the abdomen for sensitization. On the sixth day after the sensitization, 20 μL/ear of 1% olive oil solution of picryl chloride was topically applied to the anterior and posterior surfaces of both ears of the mouse to induce contact dermatitis (first induction). Before and 24 hours after the induction, the thicknesses of the particular parts on the both ears were measured three times, respectively, using a digimatic micrometer (Mitsutoyo Co., Ltd.) to work out the average values. Ear edema of the both ears was respectively determined by subtracting the average thickness of the each ear before the induction from that on 24 hours after the induction, so that a grouping was carried out to separate the appropriate individuals. On the fourth day after the first induction, the hairs on the abdomen were removed again, and 0.1 mL of 7% ethanol solution of picryl chloride was applied thereto for additional sensitization. The contact dermatitis for evaluating activity was induced by re-applying 20 μL/ear of 1% olive oil solution of picryl chloride to the anterior and posterior surfaces of both ears (second induction) on the seventh day after the additional sensitization (on the […] day after the first sensitization). The activity of each compound of the present invention was evaluated as the inhibition on the contact dermatitis as compared with that of the vehicle applied control. That is, the thicknesses of the particular portions of the both ears were measured respectively three times with a digimatic micrometer to work out the mean values before, 24 hours and 48 hours after the second induction. Ear swelling was determined by subtracting the ear thickness before the second induction from that on 24 hours and 48 hours after the second induction, respectively. Topical application activity was evaluated by applying 25 μL of the acetone solution of the compound of the present invention similarly to the anterior and posterior surfaces of the right ear one hour before and 16 hours after the second induction. As the positive control, 0.02 mg/20 μL of acetone solution of Dexamethasone (hereinafter referred to as DEX, Wako Pure Chemical Industries Ltd., 047-18863) was applied similarly as for the compound of the present invention. With respect to the inhibitory activity in topical application tests, the topical activity was determined by the inhibition of the applied right ear edema, and the translocation and distribution property was determined by the activity onto the swelling of non-treated left ear. Oral administration activity was evaluated by administrating 0.5% methyl cellulose suspension of the compound of the present invention forcibly and perorally to the mouse an hour before and 16 hours after the second induction. As the positive control, 20 mg/kg of Prednisolone (Sigma Chemical Co., P 6004) suspension was administrated similarly as for the compounds of the present invention.

| Structure (SMILES) | Ear Edema Inhibition (%) (TPA-induced ear edema; 1 mg/40 μL/ear × 2) | Inhibition (%) (IV-cPLA(2); 0.1 μM) | further results |
| --- | --- | --- | --- |
| C[C@@H]1[C@@H](c2ccc(Cl)cc2)SC(=O)N1C(=O)NC1CCCCO1 (single isomer, unassigned) [Compound 2-246] | 74 | – | Inhibition (%) (IV-cPLA(2); 0.01 μM): 78% |
| CC(C)N=C1OC(c2ccc(Cl)cc2)C(C)N1C(=O)NC1CCCCC1 (stereo not drawn) [Compound 1-28] | – | 93 | Ear Edema Inhibition (%) (TPA-induced ear edema; 1 mg/20 μL/ear × 2): 36% |
| CC(=O)N=C1SC(c2ccccc2)C(C)N1C(=O)NC1CCCCC1 (stereo not drawn) [Compound 1-43] | – | – | Ear swelling after 24 hours Left (Not applied) (Mean ± S.E., mm) ([1]; topical to right ear, non-treated left ear): 0.201 ± 0.008 mm; Ear swelling after 24 hours Right (Applied) (Mean ± S.E., mm) ([1]; topical, applied right ear): 0.196 ± 0.029 mm |
| Cc1ccc(C2OC(=NC(=O)c3c(C)cccc3Cl)NC2C)cc1 (stereo not drawn) [Compound 1-73] | 86 | 68 | – |
| Cc1ccc(N2C(=NC(=O)NC3CCCCC3)SC(c3ccc(Cl)cc3)C2C)cc1 (stereo not drawn) [Compound 1-90] | – | – | Ear Edema Inhibition (%) (TPA-induced ear edema; 1 mg/20 μL/ear × 2): 41% |
| Cc1ccc(C2SC(=NC(=S)NC3CCCCC3)NC2C)cc1 (stereo not drawn) [Compound 1-112] | 69 | – | Inhibition (%) (IV-cPLA(2); 1 μM): 72% |
| CC1C(c2ccc(Cl)cc2)SC(=O)N1C(=O)NS(=O)(=O)c1ccccc1Cl (stereo not drawn) [Compound 2-36] | – | 61 | Ear Edema Inhibition (%) (TPA-induced ear edema; 0.3 mg/20 μL/ear × 2): 41% |
| CCOC(=O)C(C)NC(=O)N1C(=O)OC(c2ccc(C)cc2)C1C (stereo not drawn) [Compound 2-54] | – | 95 | Ear Edema Inhibition (%) (TPA-induced ear edema; 0.3 mg/20 μL/ear × 2): 64% |
| CCN(CC)S(=O)(=O)NC(=O)N1C(=O)OC(c2ccc(C)cc2)C1C (stereo not drawn) [Compound 2-55] | 54 | 94 | – |
| Cc1ccc(C2OC(=O)N(C(=O)NS(=O)(=O)c3ccccc3C)C2C)cc1 (stereo not drawn) [Compound 2-60] | 53 | 100 | – |
| CC1C(c2ccc3c(c2)CCCC3)OC(=O)N1C(=O)NC1CCCCO1 (stereo not drawn) [Compound 2-125] | 62 | 62 | – |
| CC1C(c2ccc3c(c2)CCC3)OC(=O)N1C(=O)NC1CCCCO1 (stereo not drawn) [Compound 2-127] | 81 | – | Inhibition (%) (IV-cPLA(2); 0.01 μM): 54% |
| CC1C(c2ccc(Oc3ccccc3)cc2)OC(=O)N1C(=O)NC1CCCO1 (stereo not drawn) [Compound 2-128] | 49 | – | Inhibition (%) (IV-cPLA(2); 1 μM): 81% |
| CC1C(c2ccccn2)OC(=O)N1C(=O)Nc1ccc(Cl)cc1 (stereo not drawn) [Compound 2-146] | 80 | 85 | – |
| Cc1ccc(C2OC(=O)N(C(=O)NC3CCCCO3)C2C)cc1C (stereo not drawn) [Compound 2-156] | – | 88 | Ear Edema Inhibition (%) (TPA-induced ear edema; 1 mg/20 μL/ear × 2): 48% |
| Cc1ccc(C2OC(=O)N(C(=O)NC3CCCCO3)C2C)cc1 (stereo not drawn) [Compound 2-170] | – | 82 | Ear Edema Inhibition (%) (TPA-induced ear edema; 0.3 mg/20 μL/ear × 2): 57% |
| CC1C(c2ccc(-c3ccccc3)cc2)OC(=O)N1C(=O)Nc1ccc(Cl)cc1 (stereo not drawn) [Compound 2-186] | – | 75 | – |
| CC1C(c2ccc(-c3ccccc3)cc2)OC(=O)N1C(=O)Nc1ccc(Cl)cc1 (stereo not drawn) [Compound 2-187] | – | 74 | – |
| CC1C(c2ccc(Cl)cc2)SC(=O)N1C(=O)NC1CCCCO1 (stereo not drawn) [Compound 2-201] | – | – | Inhibition (%) (IV-cPLA(2); 1 μM): 94% |
| CC(=O)OCC(=O)[C@@]1(O)[C@H](C)C[C@H]2[C@@H]3CCC4=CC(=O)C=C[C@]4(C)[C@@]3(F)[C@@H](O)C[C@@]21C [DEX-Ac, Dexamathasone-21-acetate, reference compound] | – | – | Ear Edema Inhibition (%) (TPA-induced ear edema; 0.3 mg/20 μL/ear × 2): 49%; Ear Edema Inhibition (%) (TPA-induced ear edema; 1 mg/20 μL/ear × 2): 80% |
